Key:
[1] = hydrolysis in aqueous acidic medium (simulated gastro-intestinal juices), HPLC; type: physicochemical; details: for Ester (%): 0 min; for stability of ECOE ester against hydrolysis in acidic medium: acidic medium (simulated gastric juice); for Ester (%), in words: same acidic conditions, 37° C.
Procedure: The rates of hydrolysis of 2-(acetyloxy)benzoic acid (Aspirin) ethoxy carbonyloxy ethyl ester to salicylethoxy carbonyloxy ethyl ester in the aqueous acidic medium (simulated gastro-intestinal juices) were determined by dissolving the ester to a pre-determined concentration in the acidic medium containing THF: aqueous conc. HCl=1:1 and the rate of hydrolysis at 37° C. was measured by the HPLC method.
The rates of hydrolysis of acetyl salicylic acid ethoxy carbonyloxy ethyl ester to salicyl-ethoxy carbonyloxy ethyl ester in aqueous acidic system (simulated gastrointestinal juices) are given in the following table:
Ethoxy carbonyloxy ethyl ester of Aspirin was dissolved to a predetermined concentration in an acidic aqueous medium (simulated gastric juice)--mixture THF; aqueous conc. HCl (1:1) and the rate of hydrolysis at 37° C. was measured by HPLC method.

[2] = tested on: inflamed foot of the rat (brewers' yeast); assay: Analgesic action, pressure reaction threshold of yeast-inflamed foot (Basile-Analgesy-Meter); type: in vivo; parameters: % of control 1 hr / % of control 3 hrs: concentration or dose not given beside the values; details: for % effect vs. parent compound 1 hr / % effect vs. parent compound 3 hrs: relative to parent; for % of control 1 hr / % of control 3 hrs: pressure reaction threshold, rat, oral
Description: Male rats, weighing 95-140 g, 10 rats per experimental group. The major reason for selecting rats of this weight range is the ease in handling smaller sized animals in this particular test. Animals are fed and provided drinking water ad libitium until time of testing. […] (Note: Brewers' yeast, locally obtainable from "Abir" breweries, may be kept under refrigeration for a period of at least 6 months). […] This instrument is basically a device which […] force that increases at a constant rate (a certain number of grams per second). […] Note: In case weight discs are being used to increase the force of pressure applied, the same number of discs should be employed throughout the entire experiment for both experimental and control animals. For detailed operation of the analgesy-meter reference to the specific instructions of the instrument given in the appendix. a. […] The differences in the various Mean Group Values between treatment and control group are analyzed for statistical significance using the Student t-Test.

Ulcerogenicity = type: in vivo, rat; parameters: key to UI max: ulcer index = mean sum of individual lesion lengths per rat; details: rat, in vivo; dose causing UI50; female rats, oral, 5 hours; read-out: UD50
Procedure: (§1) Methods: Six groups of 10 female Charles River rats weighing 170-230 g were used for each drug. […] Drugs were freshly suspended in water with 1% carboxymethyl cellulose and administered by stomach tube. Rats treated were sacrificed 5 hours after oral gavage. Ulcers were evaluated under a magnifying lens, after the stomach had been dissected out, opened along the lesser curvature and rinsed.
(§2) Ulcer index (UI) for each group was calculated as the mean sum of the lengths of the individual lesions in each rat.
(§3) Apparent maximal ulcerogenicity was calculated from regression analysis of the ascending parts of each dose-response curve.

stomach ulcers in rats = assay: Ulcerogenicity; type: in vivo, rat; parameters: key to UI max: ulcer index = mean sum of individual lesion lengths per rat; details: for UI50: 50% of ulcerogenic index max, + on value: dose response curve acquired bell shape
Procedure: as §1, §2, §3

[3] = Bioavailability-pharmacokinetic profile in rats (plasma salicylate, fluorometry); type: in vivo; details: in words, rat
Procedure: Methods: Female Charles River rats weighing 200-250 g were used. Rates were starved for a 24 hour period prior to each experiment, while water was allowed ad libitum. […] Plasma salicylate concentrations were measured by fluorometry according to Frey and El-Sayed (Arch. Int. Pharmacodyn. 230: 300, 1977). […] Statistical evaluation was effected by (unpaired) Student t test.

[4] = THF: aqueous conc. HCl 1:1, 37° C.
[5] = dose causing max ulcerogenic index
[6] = dose-response of ulcer index, female rats, oral, 5 hours

Row | Structure (SMILES) | % effect vs. parent compound 1 hr [2] [%] | % effect vs. parent compound 3 hrs [2] [%] | % of control 1 hr [2] [%] | % of control 3 hrs [2] [%] | TD50 at 5 h (Ulcerogenicity) [µmol/kg] | UI50 (stomach ulcers in rats) | UD max (stomach ulcers in rats; [5]) [mmol/kg] | Slope (stomach ulcers in rats; [6]) [Uxkg/mmole] | UI max (stomach ulcers in rats; ulcerogenic index max) | UD max (stomach ulcers in rats; rat, in vivo) [mmol/kg] | UI max (stomach ulcers in rats; rat, in vivo) | Slope (stomach ulcers in rats; rat, in vivo, po) [Uxkg/mmole] | also measured
1 | CCOC(=O)OC(C)OC(=O)c1ccccc1OC(C)=O (stereo not shown) [Aspirin-ECOE ester, 1'-ethoxy carbonyloxy ethyl ester of 2-(acetyloxy)benzoic acid (Aspirin)] | 141 | 150 | 178 | 148 | 20 | 20.5 | 0.4 | 13.7 ± 6.5 | 40.9 | – | – | – | Ester (%) [1, 4]: 100%; remaining at 0.5 h ([1]; 30 min, THF: aqueous conc. HCl 1:1, 37° C., read-out: Ester (%)): 96%; remaining at 1 h ([1]; 60 min, THF: aqueous conc. HCl 1:1, 37° C., read-out: Ester (%)): 92%; remaining at 1.5 h ([1]; 90 min, THF: aqueous conc. HCl 1:1, 37° C., read-out: Ester (%)): 90%; remaining at 2 h ([1]; 120 min, THF: aqueous conc. HCl 1:1, 37° C., read-out: Ester (%)): 90%; remaining at 2.5 h ([1]; 150 min, THF: aqueous conc. HCl 1:1, 37° C., read-out: Ester (%)): 84%; remaining at 3 h ([1]; 180 min, THF: aqueous conc. HCl 1:1, 37° C., read-out: Ester (%)): 82%; remaining at 3.5 h ([1]; 210 min, THF: aqueous conc. HCl 1:1, 37° C., read-out: Ester (%)): 76%; hydrolysis of acetyl group in acidic medium ([1]; in words, acetyl group, simulated gastric juices): readily hydrolysed off; stability of ECOE ester against hydrolysis in acidic medium ([1]; in words): not readily hydrolysed off; ulcerogenicity compared with parent (stomach ulcers in rats; in words, vs parent acid): much smaller ulcerogenic liability; bioavailability of salicylate ([3]; oral 0.4 mmole/kg): seems complete; rate of appearance of salicylate ([3]; oral, vs plain aspirin): seems slower
2 | CCOC(=O)OC(C)OC(=O)Cc1ccccc1Nc1c(Cl)cccc1Cl (stereo not shown) [Diclofenac-ECOE ester] | 86 | 82 | 106 | 110 | – | – | 0.6 | 21.1 | 34.9 | – | – | – | –
3 | COc1ccc2cc([C@H](C)C(=O)O)ccc2c1 [Naproxen, reference compound] | – | – | 116 | 133 | – | 31.0 | 2.0 | 41.0 ± 14.2 | 62.0 | – | – | – | –
4 | CCOC(=O)OC(C)OC(=O)C(C)c1ccc2cc(OC)ccc2c1 (single isomer, unassigned; (+)) [Naproxen-ECOE ester, (+)-6-Methoxy-α-methyl-2-naphthaleneacetic acid 1'-ethoxycarbonyloxy ethyl ester] | 108 | 91 | 125 | 121 | 590 | 32.5 | 1.0 | 63.5 ± 0.59 | 65.0 | – | – | – | –
5 | CC(C)Cc1ccc(C(C)C(=O)O)cc1 (stereo not shown) [Ibuprofen, reference compound] | – | – | 152 | 145 | 325 | – | – | – | – | 2.8 | 52.0 | 38.1 ± 8.0 | –
6 | CCOC(=O)OC(C)OC(=O)C(C)c1ccc(CC(C)C)cc1 (stereo not drawn) [Ibuprofen-ECOE ester, α-Methyl-4-(2-methylpropyl)benzene--acetic acid 1'-ethoxycarbonyloxy ethyl ester] | 115 | 89 | 176 | 129 | 300 | 13.0 | 0.7 | 36.7 ± 8.5 | 26.0 | – | – | – | –
7 | CCOC(=O)OC(C)OC(=O)Cc1c(C)n(C(=O)c2ccc(Cl)cc2)c2ccc(OC)cc12 (stereo not shown) [Indomethacin-ECOE ester, 1-(p-Chlorobenzoyl)-5-methoxy-2-methylindole-3-acetic acid 1'-ethoxycarbonyloxy ethyl ester] | 102 | 105 | 130 | 153 | – | – | 0.32 | 34 ± 13.8 | 42.0 | – | – | – | –
8 | COc1ccc2c(c1)c(CC(=O)O)c(C)n2C(=O)c1ccc(Cl)cc1 [Indomethacin, reference compound] | – | – | 128 | 146 | – | – | – | – | – | 0.32 | 60 | 50 | –
9 | O=C(O)Cc1ccccc1Nc1c(Cl)cccc1Cl [Diclofenac, reference compound] | – | – | – | – | – | – | – | – | – | 0.6 | 61.8 | 31.1 ± 8.7 | –
10 | CCOC(=O)OC(C)OC(=O)c1ccccc1O (stereo not shown) [1'-ethoxy carbonyloxy ethyl ester of salicyclic acid] | – | – | – | – | – | – | – | – | – | – | – | – | Ester (%) [1, 4]: 100%; Ester (%), in words ([1]; 150 min): unchanged; Ester (%), in words ([1]; 180 min): unchanged; Ester (%), in words ([1]; 210 min): unchanged; Ester (%), in words ([1]; 240 min): unchanged; stability of ECOE ester against hydrolysis in acidic medium ([1]; in words, listed as 1'-ethoxycarbonyloxy ethyl ester of salicylic acid): stable in acidic medium; stability of ECOE ester against hydrolysis in acidic medium ([1]; in words, listed as Salicyl 2-ethoxy carbonyloxy ethyl ester): stable; stability of ECOE ester against hydrolysis in acidic medium ([1]; in words, listed as salicyclic acid 2-ethoxycarbonyloxy ethyl ester): stable
11 | CC(=O)Oc1ccccc1C(=O)O [Aspirin, 2-(acetyloxy)benzoic acid, reference compound] | – | – | 126 | 100 | 20 | – | – | – | – | 0.4 | 92.6 | 33.7 ± 11.5 | –
